ChEMBL document CHEMBL1201862, “PubChem BioAssay data set” (2004)
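A five-concentration, 48-hour dose response in 96-well plates underlies each endpoint, interpolated linearly between surrounding concentrations. At the GI50, growth is halved.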 Activity calls are given as the source filed them. No stated cut-off is given here; in the data, active = GI50 up to about 1.1 µM and inactive = higher.

How the values were obtained:
Test in all cases: NCI tumour cell line growth inhibition, 48 h
LOX IMVI = system: LOX IMVI
OVCAR-4 = system: OVCAR-4
DU-145 = system: DU-145
CAKI-1 = system: CAKI-1
RXF 393 = system: RXF 393
786-0 = system: 786-0
OVCAR-5 = system: OVCAR-5
MDA-N = system: MDA-N
OVCAR-3 = system: OVCAR-3
SK-OV-3 = system: SK-OV-3
COLO 205 = system: COLO 205
K562 = system: K562
SF-295 = system: SF-295
OVCAR-8 = system: OVCAR-8
NCI-H23 = system: NCI-H23
MOLT-4 = system: MOLT-4
HOP-62 = system: HOP-62
BT-549 = system: BT-549
HL-60 = system: HL-60
SNB-19 = system: SNB-19
Hs-578T = system: Hs-578T
A498 = system: A498
UO-31 = system: UO-31
A549 = system: A549
RPMI-8226 = system: RPMI-8226
SF-539 = system: SF-539
NCI-H522 = system: NCI-H522
UACC-62 = system: UACC-62
SW-620 = system: SW-620
ACHN = system: ACHN
MCF7 = system: MCF7
HCT-15 = system: HCT-15
Malme-3M = system: Malme-3M
SK-MEL-5 = system: SK-MEL-5
SF-268 = system: SF-268
EKVX = system: EKVX
SN12C = system: SN12C
SR = system: SR
CCRF-CEM = system: CCRF-CEM
NCI-H226 = system: NCI-H226
HCC 2998 = system: HCC 2998
NCI-H460 = system: NCI-H460
T47D = system: T47D
HOP-92 = system: HOP-92
TK-10 = system: TK-10
SK-MEL-28 = system: SK-MEL-28
SK-MEL-2 = system: SK-MEL-2
IGROV-1 = system: IGROV-1
KM12 = system: KM12
PC-3 = system: PC-3
U-251 = system: U-251
UACC-257 = system: UACC-257
SNB-75 = system: SNB-75
NCI/ADR-RES = system: NCI/ADR-RES
M14 = system: M14
MDA-MB-435 = system: MDA-MB-435
MDA-MB-231 = system: MDA-MB-231
HT-29 = system: HT-29
HCT-116 = system: HCT-116

Cn1c2ccccc2c2c(-c3ccccc3)cc3c(c21)C(=O)C=CC3=O
GI50 (LOX IMVI): 3.26 µM (inactive)
GI50 (OVCAR-4): 2.46 µM (inactive)
GI50 (DU-145): 5.4 µM (inactive)
GI50 (CAKI-1): 1.91 µM (inactive)
GI50 (RXF 393): 2.2 µM (inactive)
GI50 (786-0): 1.57 µM (inactive)
GI50 (OVCAR-5): > 8.51 µM (inactive)
GI50 (MDA-N): 2.37 µM (inactive)
GI50 (OVCAR-3): 2.05 µM (inactive)
GI50 (SK-OV-3): > 10 µM (inactive)
GI50 (COLO 205): 0.632 µM (active)
GI50 (K562): 0.249 µM (active)
GI50 (SF-295): > 10 µM (inactive)
GI50 (OVCAR-8): 2.07 µM (inactive)
GI50 (NCI-H23): 1.94 µM (inactive)
GI50 (MOLT-4): 0.28 µM (active)
GI50 (HOP-62): > 7.4 µM (inactive)
GI50 (BT-549): 1.6 µM (inactive)
GI50 (HL-60): 0.361 µM (active)
GI50 (SNB-19): 4.05 µM (inactive)
GI50 (Hs-578T): 3.54 µM (inactive)
GI50 (A498): 2.23 µM (inactive)
GI50 (UO-31): 1.61 µM (inactive)
GI50 (A549): > 10 µM (inactive)
GI50 (RPMI-8226): 1.15 µM (inactive)
GI50 (SF-539): 1.92 µM (inactive)
GI50 (NCI-H522): 1.23 µM (inactive)
GI50 (UACC-62): 1.73 µM (inactive)
GI50 (SW-620): 0.421 µM (active)
GI50 (ACHN): 1.63 µM (inactive)
GI50 (MCF7): 1.72 µM (inactive)
GI50 (HCT-15): 1.85 µM
GI50 (Malme-3M): 2.06 µM (inactive)
GI50 (SK-MEL-5): 2.96 µM (inactive)
GI50 (SF-268): 3.36 µM (inactive)
GI50 (EKVX): > 5.3 µM (inactive)
GI50 (SN12C): 2.39 µM (inactive)
GI50 (SR): 0.195 µM (active)
GI50 (CCRF-CEM): 0.228 µM (active)
GI50 (NCI-H226): 2.18 µM (inactive)
GI50 (HCC 2998): > 4.88 µM (inactive)
GI50 (NCI-H460): 6.07 µM (inactive)
GI50 (T47D): 1.38 µM (inactive)
GI50 (HOP-92): 1.96 µM (inactive)
GI50 (TK-10): 1.92 µM (inactive)
GI50 (SK-MEL-28): 2 µM (inactive)
GI50 (SK-MEL-2): 3.03 µM (inactive)
GI50 (IGROV-1): 2.3 µM (inactive)
GI50 (KM12): 4.43 µM (inactive)
GI50 (PC-3): 3.02 µM (inactive)
GI50 (U-251): 4.05 µM (inactive)
GI50 (UACC-257): 2.11 µM (inactive)
GI50 (SNB-75): > 5.66 µM (inactive)
GI50 (NCI/ADR-RES): 3.33 µM (inactive)
GI50 (M14): 1.46 µM (inactive)
GI50 (MDA-MB-435): 1.92 µM (inactive)
GI50 (MDA-MB-231): 2.43 µM (inactive)
GI50 (HT-29): 3.83 µM (inactive)
GI50 (HCT-116): 1.45 µM (inactive)

COc1ccc(-c2cs/c(=N\c3ccccc3)n2CC(O)c2ccc([N+](=O)[O-])cc2)cc1 (stereo not drawn)
GI50 (LOX IMVI): > 100 µM (inactive)
GI50 (OVCAR-4): > 100 µM (inactive)
GI50 (DU-145): > 100 µM (inactive)
GI50 (CAKI-1): > 100 µM (inactive)
GI50 (RXF 393): > 100 µM (inactive)
GI50 (786-0): > 100 µM (inactive)
GI50 (OVCAR-5): > 100 µM (inactive)
GI50 (MDA-N): > 100 µM (inactive)
GI50 (OVCAR-3): > 100 µM (inactive)
GI50 (SK-OV-3): > 100 µM (inactive)
GI50 (COLO 205): > 100 µM (inactive)
GI50 (K562): 3.84 µM (inactive)
GI50 (SF-295): > 100 µM (inactive)
GI50 (OVCAR-8): > 100 µM (inactive)
GI50 (NCI-H23): > 100 µM (inactive)
GI50 (MOLT-4): 4.06 µM (inactive)
GI50 (HOP-62): > 100 µM (inactive)
GI50 (BT-549): > 100 µM (inactive)
GI50 (HL-60): > 100 µM (inactive)
GI50 (SNB-19): > 100 µM (inactive)
GI50 (Hs-578T): > 100 µM (inactive)
GI50 (A498): > 100 µM (inactive)
GI50 (UO-31): > 100 µM (inactive)
GI50 (A549): > 100 µM (inactive)
GI50 (RPMI-8226): 6.37 µM (inactive)
GI50 (SF-539): > 100 µM (inactive)
GI50 (NCI-H522): > 100 µM (inactive)
GI50 (UACC-62): > 73.5 µM (inactive)
GI50 (SW-620): > 100 µM (inactive)
GI50 (ACHN): > 100 µM (inactive)
GI50 (MCF7): > 63.8 µM (inactive)
GI50 (HCT-15): > 100 µM
GI50 (Malme-3M): > 100 µM (inactive)
GI50 (SK-MEL-5): 4.04 µM (inactive)
GI50 (SF-268): > 100 µM (inactive)
GI50 (EKVX): > 100 µM (inactive)
GI50 (SN12C): > 100 µM (inactive)
GI50 (SR): 4.25 µM (inactive)
GI50 (CCRF-CEM): > 71.1 µM (inactive)
GI50 (NCI-H226): > 100 µM (inactive)
GI50 (HCC 2998): > 100 µM (inactive)
GI50 (NCI-H460): > 100 µM (inactive)
GI50 (T47D): 5.42 µM (inactive)
GI50 (HOP-92): > 100 µM (inactive)
GI50 (TK-10): > 100 µM (inactive)
GI50 (SK-MEL-28): > 100 µM (inactive)
GI50 (SK-MEL-2): > 100 µM (inactive)
GI50 (IGROV-1): > 100 µM (inactive)
GI50 (KM12): > 100 µM (inactive)
GI50 (PC-3): > 100 µM (inactive)
GI50 (U-251): > 100 µM (inactive)
GI50 (UACC-257): > 76.9 µM (inactive)
GI50 (SNB-75): > 100 µM (inactive)
GI50 (NCI/ADR-RES): > 74.5 µM (inactive)
GI50 (M14): > 100 µM (inactive)
GI50 (MDA-MB-435): > 100 µM (inactive)
GI50 (MDA-MB-231): > 100 µM (inactive)
GI50 (HT-29): > 100 µM (inactive)
GI50 (HCT-116): > 29.9 µM (inactive)
